From PubChem BioAssay (NCI)
Where “and” joins values, the source holds several entries; their conditions need not be identical. Identical values can stand only once.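 Tested at 5 concentrations; 48 h exposure; 96-well plates; endpoints linearly interpolated, else capped at highest concentration. GI50 is the concentration that inhibits growth by half. At the TGI there is no net growth.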

Columns and labels:
Assay in all cases: DTP human tumour cell line panel, 48 h
OVCAR-8 ovarian = test system: OVCAR-8 ovarian
NCI-H522 lung = test system: NCI-H522 lung
SNB-19 CNS = test system: SNB-19 CNS
SNB-75 CNS = test system: SNB-75 CNS
NCI-H23 lung = test system: NCI-H23 lung
MALME-3M melanoma = test system: MALME-3M melanoma
NCI-H226 lung = test system: NCI-H226 lung
786-0 renal = test system: 786-0 renal
RXF 393 renal = test system: RXF 393 renal
SK-MEL-5 melanoma = test system: SK-MEL-5 melanoma

Which GI50 (OVCAR-8 ovarian) does the source give for `CCC(CO)Nc1nc2ccc(Cl)cc2c2ccccc12` (centres undefined) here?
The GI50 was 11.4 µM.

And the TGI (OVCAR-8 ovarian)?
The TGI was 29.3 µM.

And the GI50 (NCI-H522 lung)?
The GI50 was 8.42 µM.

And the TGI (NCI-H522 lung)?
Its TGI is 21.5 µM.

What about the GI50 (SNB-19 CNS) of the same compound?
The GI50 was 8.53 µM.

What about the TGI (SNB-19 CNS) of the same compound?
The TGI was 21.3 µM.

What about the GI50 (SNB-75 CNS) of the same compound?
The GI50 was 4.38 µM.

What about the TGI (SNB-75 CNS) of the same compound?
Its TGI is 18 µM.

What about the GI50 (NCI-H23 lung) of the same compound?
The GI50 was 12.3 µM.

What about the TGI (NCI-H23 lung) of the same compound?
The TGI was 25.9 µM.

And the GI50 (MALME-3M melanoma)?
Its GI50 is 15.7 µM.

And the TGI (MALME-3M melanoma)?
The TGI was 29.3 µM.

What about the GI50 (NCI-H226 lung) of the same compound?
Its GI50 is 11.4 µM.

What about the TGI (NCI-H226 lung) of the same compound?
Its TGI is 31.7 µM.

What about the GI50 (786-0 renal) of the same compound?
The GI50 was 7.37 µM.

What about the TGI (786-0 renal) of the same compound?
The TGI was 20.1 µM.

And the GI50 (RXF 393 renal)?
The GI50 was 2.3 µM.

And the TGI (RXF 393 renal)?
Its TGI is 5.93 µM.

And the GI50 (SK-MEL-5 melanoma)?
Its GI50 is 11.2 µM.

What about the TGI (SK-MEL-5 melanoma) of the same compound?
The TGI was 23.3 µM.

For `COC(=O)[C@@H]1[C@H](O)[C@H](C)[C@H](O)[C@@](C)(O)/C=C\C=C(C)C(=O)Nc2c(C)c(OC(C)=O)c3c(c2O)C(=O)C(C)=C2OCOC(=C23)C(C)=C[C@@](C)(O)[C@H](O)[C@@H](C)[C@H]1OC(C)=O`, which GI50 (OVCAR-8 ovarian) is on record?
Its GI50 is 42.3 µM.

And the TGI (OVCAR-8 ovarian)?
The TGI was > 100 µM and 66.9 µM.

And the GI50 (NCI-H522 lung)?
Its GI50 is 17.8 µM.

And the TGI (NCI-H522 lung)?
The TGI was > 100 µM and 66.9 µM and 43.6 µM.

What about the GI50 (SNB-19 CNS) of the same compound?
The GI50 was over 66.9 µM.

What about the TGI (SNB-19 CNS) of the same compound?
Its TGI is over 100 µM.

What about the TGI (SNB-75 CNS) of the same compound?
Its TGI is over 100 µM.

What about the TGI (NCI-H23 lung) of the same compound?
The TGI was > 100 µM and 66.9 µM and 47.8 µM.

What about the TGI (MALME-3M melanoma) of the same compound?
Its TGI is > 100 µM and 66.9 µM and 88.6 µM.

What about the TGI (NCI-H226 lung) of the same compound?
The TGI was over 100 µM.

And the TGI (786-0 renal)?
The TGI was over 100 µM.

What about the TGI (RXF 393 renal) of the same compound?
The TGI was over 100 µM.

What about the GI50 (SK-MEL-5 melanoma) of the same compound?
The GI50 was 20.5 µM.

What about the TGI (SK-MEL-5 melanoma) of the same compound?
Its TGI is > 100 µM and 66.9 µM and 38.4 µM.

`COC1CCC2C(NS(=O)(=O)c3ccc(C)cc3)CCCC2O1` (centres undefined) (tested in a mixture with another compound) was tested. Which TGI (OVCAR-8 ovarian) did it give?
Its TGI is over 34.5 µM.

And the TGI (NCI-H522 lung)?
Its TGI is 31.5 µM.

And the TGI (SNB-19 CNS)?
Its TGI is over 34.5 µM.

And the TGI (SNB-75 CNS)?
Its TGI is over 34.5 µM.

And the TGI (NCI-H23 lung)?
Its TGI is over 34.5 µM.

What about the TGI (MALME-3M melanoma) of the same compound?
Its TGI is over 34.5 µM.

And the TGI (NCI-H226 lung)?
The TGI was over 34.5 µM.

And the TGI (786-0 renal)?
The TGI was over 34.5 µM.

What about the TGI (RXF 393 renal) of the same compound?
The TGI was over 34.5 µM.

What about the TGI (SK-MEL-5 melanoma) of the same compound?
Its TGI is 19.4 µM.

Which results are given for `O=C(/C=C/c1ccccc1)NC1C=Nc2ccc(Cl)cc2NC1=O` (centres undefined)?
TGI (OVCAR-8 ovarian): > 100 µM; TGI (NCI-H522 lung): 34.6 µM; TGI (SNB-19 CNS): > 100 µM; TGI (SNB-75 CNS): 62.9 µM; TGI (NCI-H23 lung): > 100 µM; TGI (MALME-3M melanoma): 85.1 µM; TGI (NCI-H226 lung): > 100 µM; TGI (786-0 renal): > 100 µM; TGI (RXF 393 renal): 52.4 µM; TGI (SK-MEL-5 melanoma): 51.6 µM

With `O=C(Nc1ccc(Cl)c(Cl)c1)Nc1ccc(Cl)c(Cl)c1` as the compound, how does the GI50 (OVCAR-8 ovarian) read?
The GI50 was 3.12 µM and 2.54 µM.

What about the TGI (OVCAR-8 ovarian) of the same compound?
Its TGI is 14.1 µM and 9.83 µM.

And the GI50 (NCI-H522 lung)?
Its GI50 is 1.68 µM and 1.25 µM.

What about the TGI (NCI-H522 lung) of the same compound?
The TGI was 5.67 µM and 3.03 µM.

And the GI50 (SNB-19 CNS)?
Its GI50 is 3.03 µM and 3.7 µM.

And the TGI (SNB-19 CNS)?
The TGI was 15.4 µM and 23 µM.

What about the GI50 (SNB-75 CNS) of the same compound?
The GI50 was 2.15 µM and 2.85 µM.

What about the TGI (SNB-75 CNS) of the same compound?
Its TGI is 7.81 µM and 18.8 µM.

What about the GI50 (NCI-H23 lung) of the same compound?
Its GI50 is 2.63 µM and 2.4 µM.

What about the TGI (NCI-H23 lung) of the same compound?
Its TGI is 10.2 µM and 11.4 µM.

What about the GI50 (MALME-3M melanoma) of the same compound?
Its GI50 is 2.22 µM and 2.44 µM.

And the TGI (MALME-3M melanoma)?
Its TGI is 5.95 µM and 6.58 µM.

What about the GI50 (NCI-H226 lung) of the same compound?
Its GI50 is 3.05 µM and 3.22 µM.

What about the TGI (NCI-H226 lung) of the same compound?
The TGI was 15.2 µM and 15.8 µM.

And the GI50 (786-0 renal)?
Its GI50 is 3.79 µM and 3.21 µM.

What about the TGI (786-0 renal) of the same compound?
Its TGI is 14.4 µM and 13 µM.

And the GI50 (RXF 393 renal)?
The GI50 was 2.81 µM and 2.57 µM.

What about the TGI (RXF 393 renal) of the same compound?
The TGI was 11.6 µM and 6.57 µM.

And the GI50 (SK-MEL-5 melanoma)?
Its GI50 is 1.74 µM and 1.77 µM.

And the TGI (SK-MEL-5 melanoma)?
The TGI was 3.35 µM and 3.18 µM.

What does the source list for `O=C1CC(c2ccc3c(c2)OCO3)Nc2ccccc21` (centres undefined)?
GI50 (OVCAR-8 ovarian): 14.4 µM; TGI (OVCAR-8 ovarian): 63.3 µM; GI50 (NCI-H522 lung): 12.9 µM; TGI (NCI-H522 lung): 38.8 µM; GI50 (SNB-19 CNS): 12.5 µM; TGI (SNB-19 CNS): 30.2 µM; GI50 (SNB-75 CNS): 4.04 µM; TGI (SNB-75 CNS): 18.5 µM; GI50 (NCI-H23 lung): 12.2 µM; TGI (NCI-H23 lung): 32.7 µM; GI50 (MALME-3M melanoma): 14.5 µM; TGI (MALME-3M melanoma): 30.2 µM; GI50 (NCI-H226 lung): 24.6 µM; TGI (NCI-H226 lung): > 88 µM; GI50 (786-0 renal): 8.11 µM; TGI (786-0 renal): 40.2 µM; GI50 (RXF 393 renal): 11.7 µM; TGI (RXF 393 renal): 28.3 µM; GI50 (SK-MEL-5 melanoma): 12.6 µM; TGI (SK-MEL-5 melanoma): 25.8 µM

For `COc1ccc(C(=O)Cn2c(C(=O)c3ccccc3)nc(-c3ccc(OC)cc3)c2-c2ccc(OC)cc2)cc1`, which GI50 (OVCAR-8 ovarian) is on record?
The GI50 was over 100 µM.

And the TGI (OVCAR-8 ovarian)?
Its TGI is over 100 µM.

And the GI50 (NCI-H522 lung)?
The GI50 was over 100 µM.

What about the TGI (NCI-H522 lung) of the same compound?
The TGI was over 100 µM.

What about the GI50 (SNB-19 CNS) of the same compound?
The GI50 was over 100 µM.

And the TGI (SNB-19 CNS)?
The TGI was over 100 µM.

And the GI50 (SNB-75 CNS)?
Its GI50 is 7.71 µM.

And the TGI (SNB-75 CNS)?
Its TGI is 38.4 µM.

What about the GI50 (NCI-H23 lung) of the same compound?
Its GI50 is over 100 µM.

What about the TGI (NCI-H23 lung) of the same compound?
The TGI was over 100 µM.

And the GI50 (MALME-3M melanoma)?
The GI50 was over 100 µM.

And the TGI (MALME-3M melanoma)?
Its TGI is over 100 µM.

And the GI50 (NCI-H226 lung)?
The GI50 was over 100 µM.

What about the TGI (NCI-H226 lung) of the same compound?
Its TGI is over 100 µM.

And the GI50 (786-0 renal)?
Its GI50 is 46.1 µM.

What about the TGI (786-0 renal) of the same compound?
Its TGI is over 100 µM.

What about the GI50 (RXF 393 renal) of the same compound?
The GI50 was 19.9 µM.

What about the TGI (RXF 393 renal) of the same compound?
Its TGI is 49.2 µM.

What about the GI50 (SK-MEL-5 melanoma) of the same compound?
Its GI50 is over 100 µM.

And the TGI (SK-MEL-5 melanoma)?
Its TGI is over 100 µM.
